Data: patent publication US20230233671A1, “RNA MOLECULES” (Pfizer Inc., priority 2021, published 2023)

How the values were obtained:
VZV gE [1] = experiment: ICS assay of gE peptide-stimulated splenocytes from LAV-experienced C57BL/6 mice; assay type: in vivo; conditions: for IFN-γ+ CD4+ T cell: percentage within CD4+ T cells; for IFN-γ+ CD8+ T cell: percentage within CD8+ T cells; for gE-specific IFN-γ+ CD8+ T cell response induced or not: FIG. 26C; for gE-specific IFN-γ+ CD8+ T-cell response, increase after second/boost dose: FIG. 27B
Text: Splenocytes were harvested from Balb/c mice on Day 34, (34 days after immunization, 6 days after boost) to assess gE-specific T cell responses induced. An Intracellular Cytokine Staining (ICS) assay was used to detect the presence of cytokines within CD4^+ or CD8^+ T cells following antigen peptide stimulation. ICS assay can detect multiple cytokines, including IFN-γ, produced in both CD4^+ and CD8^+ T cells following antigen peptide stimulation. During the ex vivo stimulation of splenocytes, reagents to block protein secretion are added to retain the synthesized cytokine to allow their detection by intracellular staining. Following stimulation, cells are stained for surface and intracellular markers to identify T cell types (CD3^+ cells for CD4 and CD8 T cells), activation markers (CD154/CD40L) and cytokines. CD4^+ T cells expressing IFN-γ, IL-2, TNFα and CD40L, and CD8^+ T cells expressing IFN-γ were assessed to evaluate gE-specific T cells.
2×10^6 splenocytes were stimulated with a 2 μg/mL gE peptide pool mix, a mix of 10 ng/ml phorbol myristate acetate (PMA) and 1 μg/mL ionomycin (positive control), or DMSO (negative control). BD GOLGISTOP™ and BD GOLGIPLUG™ were added to block protein secretion. Following incubation for 6 hours at 37° C., cells were stained for viability (10 min at 25° C.) and extracellular markers with directly labelled antibodies (20 min at 25° C.). Cells were fixed and permeabilized with BD CYTOFIX/CYTOPERM™ solution. Intracellular staining for cytokines (IFN-γ, IL-2, TNFα) and activation markers (CD154/CD40L) was performed in BD CYTOFIX/CYTOPERM™ solution (30 min at 25° C.). Cells were washed, resuspended in 2% FBS/PBS buffer and acquired on an LSRFORTESSA™. Data were analyzed by FlowJo 10.7.1. Results shown are background (media-DMSO) subtracted.
VZV RNA-LNP vaccines were tested for their ability to induce IgG and T cell responses in C57BL/6 mice. 15 mice per group were immunized in accordance with the schedule and specification in Table 11. Briefly, 10 or 15 mice per group were primed subcutaneously (SQ) on Day 0 with a live-attenuated varicella (LAV) vaccine (VARIVAX®, Merck) using a full human dose per mouse (1350 pfu), immunized intramuscularly (IM) on Day 35 day and boosted on Day 63. The “infection” with a LAV vaccine mimics exposure to VZV that humans receive when infected with VZV as children and develop chickenpox.
Mice immunized with SHINGRIX® received 1, 2.5, or 5 μg, corresponding to 1/50, 1/20, and 1/10 of the human clinical dose, respectively; mice immunized with gE_WT CO2 received 0.5 or 1 μg VZV RNA-LNP; mice immunized with ms5 CO1 received 0.5 or 1 ug VZV RNA-LNP; mice immunized with ms6 CO2 received 0.5 or 1 ug VZV RNA-LNP; and mice immunized with lyophilized gE_WT CO2 received 0.5 or 1 ug VZV RNA-LNP. Saline was administered on Day 35 and 63 to a negative control group. Sera was collected from mice on Day 35, 63 and 76 for characterization of VZV gE-binding IgG levels (LUMINEX® analyses). Spleens were harvested on Day 48 (13 days post dose 1 for selected groups) and Day 76 for cellular analysis (T cell and B cell responses).
Vaccine-induced T cell response was measured following ex vivo stimulation of splenocytes with gE peptide pool (2 μg/mL of each peptide) by ELISpot and Intracellular Cytokine Staining (ICS) assay (described herein). For ELISpot, the cytokine IFN-γ secreted by activated T cells were captured by an anti-IFN-γ antibody coated onto the polyvinylidene fluoride (PVDF) membrane of the well bottom on a microplate. The captured IFN-γ was developed into a spot by another non-competing biotinylated anti-IFN-γ secondary antibody followed by an enzymatic color reaction using streptavidin-alkaline phosphatase (ALP) conjugate and the substrate solution, nitro-blue tetrazolium and 5-bromo-4-chloro-3′-indolyphosphate (BCIP/NBT-plus) that yielded a dark purple precipitate or spot. […]

[2] = system: human embryonic kidney (HEK) 293T cells; experiment: In vitro expression (IVE) of VZV RNA-LNP vaccines in HEK 293T cells (FACS); assay type: cell-based; conditions: for VZV RNA-LNPs (293T cells) MFI: Table 8; for VZV RNA-LNPs (293T cells) EC50 (ng/well): Table 8, FIG. 15, input RNA vs percentage of gE-expressing cells, 24 hours
Procedure: In vitro expression (IVE) analyses were conducted to assess the potency of VZV RNA-LNP vaccines. RNA constructs were formulated into LNPs as previously described in Example 3, and a range of input VZV RNA-LNP quantities was transfected into human embryonic kidney (HEK) 293T cells for 24 hours at 37° C., 5% CO2. Transfected cells were washed with DPBS, detached from plate wells using ACCUTASE®, and rinsed with cold PBS. Cells were subjected to live/dead staining, fixation, and permeabilization prior to FACS staining. Fixed and permeabilized cells were incubated with an anti-gE primary antibody (1:1000) for 45 minutes at 2-8° C., washed twice with BD PERM/WASH™ buffer and incubated with a goat anti-human kappa-PE secondary antibody (1:1000) for 30 minutes at 2-8° C. Cells were washed twice with BD PERM/WASH™ buffer, resuspended in 1×FACS buffer, and analyzed on a BD LSRII to determine the proportion of cells expressing VZV gE for each VZV RNA-LNP input. A titration curve was created whereby input RNA quantities were plotted against the percentage of gE-expressing cells to determine the EC50 of each VZV RNA-LNP vaccine.

VZV gE [3] = experiment: IFN-γ ELISpot of gE peptide-stimulated splenocytes from LAV-experienced C57BL/6 mice; assay type: in vivo; conditions: Day 48 (13 days post dose 1), 1 μg IM Day 35
Procedure: VZV RNA-LNP vaccines were tested for their ability to induce IgG and T cell responses in C57BL/6 mice. 15 mice per group were immunized in accordance with the schedule and specification in Table 11. Briefly, 10 or 15 mice per group were primed subcutaneously (SQ) on Day 0 with a live-attenuated varicella (LAV) vaccine (VARIVAX®, Merck) using a full human dose per mouse (1350 pfu), immunized intramuscularly (IM) on Day 35 day and boosted on Day 63. The “infection” with a LAV vaccine mimics exposure to VZV that humans receive when infected with VZV as children and develop chickenpox. […]
Vaccine-induced T cell response was measured following ex vivo stimulation of splenocytes with gE peptide pool (2 μg/mL of each peptide) by ELISpot and Intracellular Cytokine Staining (ICS) assay (described herein). […] T cell IFN-γ response was measured using Mabtech Mouse IFN-γ ELISpot PLUS kit (ALP) and expressed as spot forming cells (SFC) per million cells. The ICS assay measured IFN-γ-expressing cells within CD4^+ and CD8^+ T cells expressed as percentage of IFN-γ^+ cells within CD4^+ and CD8^+ T cells. […]

[4] = Day 48 (13 days post dose 1), 1 μg IM Day 35
[5] = Day 76 (13 days post dose 2/boost), 1 μg IM Days 35 and 63
[6] = Day 76 (13 days post dose 2/boost)

## ms5 CO1: modRNA construct, ORF SEQ ID NO: 153, VZV gE with deletion of aa 582-623
VZV gE [1]; [4]
  IFN-γ+ CD4+ T cell: 0.47%
  IFN-γ+ CD8+ T cell: 0.05%
VZV gE [1]; Day 48 (13 days post dose 1)
  gE-specific IFN-γ+ CD8+ T cell response induced or not: induced
VZV gE [1]; [5]
  IFN-γ+ CD4+ T cell: 0.48%
  IFN-γ+ CD8+ T cell: 0.28%
VZV gE [1]; [6]
  gE-specific IFN-γ+ CD8+ T-cell response, increase after second/boost dose: robust increase
[2]
  VZV RNA-LNPs (293T cells) MFI: 543
  VZV RNA-LNPs (293T cells) EC50 (ng/well): 14 ng/well
VZV gE [3]
  gE-specific IFN-γ+ cells (ELISpot): 1068 SFC per million cells

## ms6 CO2: modRNA construct, ORF SEQ ID NO: 157, VZV gE with deletion of aa 539-623, secreted
VZV gE [1]; [4]
  IFN-γ+ CD4+ T cell: 0.09%
  IFN-γ+ CD8+ T cell: 0.16%
VZV gE [1]; Day 48 (13 days post dose 1)
  gE-specific IFN-γ+ CD8+ T cell response induced or not: induced
VZV gE [1]; [5]
  IFN-γ+ CD4+ T cell: 0.50%
  IFN-γ+ CD8+ T cell: 0.21%
VZV gE [1]; [6]
  gE-specific IFN-γ+ CD8+ T-cell response, increase after second/boost dose: robust increase
[2]
  VZV RNA-LNPs (293T cells) MFI: 162
  VZV RNA-LNPs (293T cells) EC50 (ng/well): 220 ng/well
VZV gE [3]
  gE-specific IFN-γ+ cells (ELISpot): 150 SFC per million cells
